In PMC12251482, “Floridoside Phosphotriester Derivatives: Synthesis and Inhibition of Human Neutrophils’ Oxidative Burst” (Molecules, 2025):

How the values were obtained:
[1] = tested on: PMA-stimulated human neutrophils; assay: H2O2 generation by PMA-stimulated neutrophils, oxidation of Amplex Red; type: cell-based; settings: PMA 160 nM, mean ± SEM; for Amplex Red: highest obtained % of inhibition / inhibition at 50 µM: at 50 µM; for inhibition at 50 µM / IC50: Homo sapiens, Neutrophil; for inhibition at 50 µM: read-out: Amplex Red: highest obtained % of inhibition
Description: Amplex Red is a highly sensitive and chemically stable fluorescent probe for the extracellular detection of H2O2 [82]. The methodology used previously for monitoring the modulation of the oxidative burst was adapted. In a 96-well plate, neutrophils (2 × 10^6 cells/mL) were incubated in the dark at 37 °C for 5 min with Amplex Red (25 μM), horseradish peroxidase (0.25 U/mL), and the compounds under study (10–100 μM) or DMSO (4%). Quercetin (0.3–5.0 μM) and DPI (0.01–10 μM) were used as controls. After incubation, PMA (160 nM) was added, and the fluorescence (excitation at 530 nm and emission at 590 nm) was measured in a microplate reader (Synergy HT, BioTek Instruments, Inc., Winooski, VT, USA). Obtained values correspond to the slope measured between 5 and 10 min. Effects are expressed as the percentage inhibition of Amplex Red oxidation. The results obtained represent at least three independent experiments. […] 3.4.3 Oxidation of Amplex Red
Amplex Red is a highly sensitive and chemically stable ﬂuorescent probe for the extracellular detection of H2O2 [16]. The methodology used previously for monitoring the modulation of the oxidative burst was adapted.
In a 96-well plate, neutrophils (2 x 10^6 cells/mL) were incubated in the dark at 37 °C for 5 minutes with Amplex Red (25 µM), horseradish peroxidase (0.25 U/mL) , and the compounds under study (10 - 100 µM) or DMSO (4%). Quercetin (0.3 - 5.0 µM) and DPI (0.01 - 10 µM) were used as positive controls for inhibition. After incubation, PMA (160 nM) was added, and the ﬂuorescence (excitation at 530 nm and emission at 590 nm) was measured in a microplate reader (Synergy HT, BioTek Instruments, Inc., Winooski, VT, USA). Obtained values correspond to the slope measured between 5 and 10 minutes. Eﬀects are expressed as the percentage inhibition of Amplex Red oxidation. The obtained results represent at least three independent experiments.
(§1) GraphPad Prism 6 software was used to plot the inhibition percentage versus compound concentration curves, enabling the determination of the concentration required to achieve 50% inhibition (IC50). GraphPad Prism 6 software was also used to perform all statistical analyses.
(§2) […] was estimated by applying the one-way analysis (ANOVA), followed by the Bonferroni’s multiple comparisons test. In all cases, p-values < 0.05 were considered statistically signiﬁcant. The results are expressed as mean ± standard error of the mean (SEM).

[2] = tested on: PMA-stimulated human neutrophils; assay: HOCl generation by PMA-stimulated neutrophils, oxidation of APF; type: cell-based; settings: PMA 160 nM, mean ± SEM; for APF: highest obtained % of inhibition / inhibition at 50 µM: at 50 µM; for inhibition at 50 µM / IC50: Homo sapiens, Neutrophil; for inhibition at 50 µM: read-out: APF: highest obtained % of inhibition
Description: APF is a non-fluorescent derivative of fluorescein, which is oxidized by HOCl, ONOO^−, and HO^• [87], in a concentration-dependent manner. Its selectivity was tested using the myeloperoxidase (MPO) inhibitor, 4-aminobenzoic acid hydrazide (ABAH). The addition of ABAH to human neutrophils, stimulated with PMA, decreased the APF-dependent fluorescence signal to the level of the control assay, ruling out the involvement of HO^• and ONOO^− [88]. The previously established methodology for monitoring oxidative burst modulation was adapted. In a 96-well plate, neutrophils (2 × 10^6 cells/mL) were incubated in the dark at 37 °C for 5 min with APF (2 μM) and the tested compounds (10–100 μM) or DMSO (4%). Quercetin (0.3–5.0 μM) and DPI (0.01–10 μM) were used as controls. After incubation, PMA (160 nM) was added, and the fluorescence (excitation at 495 nm and emission at 528 nm) was measured in a microplate reader (Synergy HT, BIO-TEK Instruments, Inc., Winooski, VT, USA). Kinetic readings were initiated immediately after the addition of APF. Obtained values correspond to the slope measured between 5 and 15 min. Effects are expressed as the percentage inhibition of APF oxidation. The results obtained represent at least three independent experiments.
APF is a non-ﬂuorescent derivative of ﬂuorescein, which is oxidized by HOCl, [20] ONOO-, and HO• [21] in a concentration- dependent manner. Its selectivity was tested using the myeloperoxidase (MPO) inhibitor, 4-aminobenzoic acid hydrazide (ABAH). The addition of ABAH to human neutrophils, stimulated with PMA, decreased the APF-dependent ﬂuorescence signal to the level of the control assay, ruling out the involvement of HO• and ONOO− [22]. The previously established methodology for monitoring oxidative burst modulation was adapted. In a 96-well plate, neutrophils (2 x 10^6 cells/mL) were incubated in the dark at 37 °C for 5 minutes with APF (2 µM) and the tested compounds (10 - 100 µM) or DMSO (4%). Quercetin (0.3 - 5.0 µM) and DPI (0.01 - 10 µM) were used as positive and negative controls, respectively. After incubation, PMA (160 nM) was added, and the ﬂuorescence (excitation at 495 nm and emission at 528 nm) was measured in a microplate reader (Synergy HT, BIO-TEK Instruments, Inc., Winooski, VT, USA). Kinetic readings were initiated immediately after the addition of APF. Obtained values correspond to the slope measured between 5 and 15 minutes. Eﬀects are expressed as the percentage inhibition of APF oxidation. The obtained results represent at least three independent experiments. […]
as §1, §2

[3] = tested on: PMA-stimulated human neutrophils; assay: PMA-induced neutrophils' oxidative burst, oxidation of luminol (chemiluminescence); type: cell-based; settings: PMA 160 nM, mean ± SEM; for Luminol: highest obtained % of inhibition / inhibition at 100 µM: at 100 µM; for inhibition at 100 µM / IC50: Homo sapiens, Neutrophil; for inhibition at 100 µM: read-out: Luminol: highest obtained % of inhibition
Description: Luminol is easily oxidized by reactive species produced during neutrophils’ oxidative burst, resulting in a chemiluminescent signal. The effect of the compounds under study on the modulation of neutrophil oxidative burst was determined after stimulation with PMA, a known neutrophil activator, because its effect is closely analogous to that obtained during the phagocytic process. Following a previously reported method, in a 96-well plate, neutrophils were incubated in the dark at 37 °C for 5 min with luminol (500 μM) and the tested compounds (10–100 μM) or DMSO (final concentration 4%). Quercetin, a flavonoid known for its anti-inflammatory activity (0.3–5.0 μM), and the inhibitor of NADPH oxidase, DPI (0.01–10 μM), were used as controls. After incubation, PMA (160 nM) was added, and the chemiluminescence was measured in a microplate reader (Synergy HT, BIO-TEK Instruments, Inc., Winooski, VT, USA). Kinetic readings were initiated immediately after cell stimulation. Measurements were taken at the peak of the curve. […] Effects are expressed as the inhibition percentage of luminol oxidation. The results obtained represent at least three independent experiments. […]
3.4 Evaluation of neutrophils' oxidative burst
3.4.1 Oxidation of luminol
Luminol is easily oxidized by reactive species produced during neutrophils’ oxidative burst, resulting in a chemiluminescent signal. The eﬀect of the compounds under study on the modulation of neutrophil oxidative burst was determined after stimulation with PMA, a known neutrophil activator, because its eﬀect is closely analogous to that obtained during the phagocytic process. Following a previously reported method, in a 96-well plate, neutrophils were incubated in the dark at 37 °C for 5 minutes with luminol (500 µM) and the tested compounds (10 - 100 µM) or DMSO (ﬁnal concentration 4%). Quercetin, a ﬂavonoid known for its anti-inﬂammatory activity (0.3 - 5.0 µM), and the inhibitor of NADPH oxidase, DPI (0.01 - 10 µM), were used as positive and negative controls, respectively. After incubation, PMA (160 nM) was added, and the chemiluminescence was measured in a microplate reader (Synergy HT, BIO-TEK Instruments, Inc., Winooski, VT, USA). Kinetic readings were initiated immediately after cell stimulation. Measurements were taken at the […]
peak of the curve. […] Eﬀects are expressed as the inhibition percentage of luminol oxidation. The obtained results represent at least three independent experiments.

[4] = tested on: RAW 264.7 macrophages; parameters: method as in PMID 11292070, doi:10.1016/j.fbio.2025.105894; settings: read-out: IC50 for the inhibition of •NO; cited from earlier work

Question: For “3-Hydroxy-2-(galactopyranosyl)propyl bis(3-phenylpropyl) phosphate [Compound 1f]”, which “Amplex Red: highest obtained % of inhibition” value [1] is on record?
Answer: <20% ^50µM

Question: What about the “APF: highest obtained % of inhibition” value [2] of the same compound?
Answer: <20% ^50µM

Question: And the “Luminol: highest obtained % of inhibition” value [3]?
Answer: <20% ^100µM

Question: Which results are given for “3-Hydroxy-2-galactopyranosylpropyl (bis(2-aminoethyl)) phosphate [Compound 1c]”?
Answer: Amplex Red: highest obtained % of inhibition [1]: <20% ^50µM; APF: highest obtained % of inhibition [2]: 22 ± 8% ^50µM; Luminol: highest obtained % of inhibition [3]: <20% ^100µM

Question: With `NCCOP(=O)(OCCN)OCC1OC(OC(CO)CO)C(O)C(O)C1O` (stereo not shown) [Compound 1d] as the compound, how does the inhibition at 50 µM [1] read?
Answer: 30 ± 9%

Question: And the inhibition at 50 µM [2]?
Answer: 21 ± 6%

Question: And the inhibition at 100 µM [3]?
Answer: < 20%

Question: For `COc1ccc(CCCOP(=O)(OCCCc2ccc(OC)c(OC)c2)OCC(CO)OC2OC(CO)C(O)C(O)C2O)cc1OC` (stereo not shown) [Compound 1g, 3-Hydroxy-2-(galactopyranosyl)propyl (bis(3-(3,4-dimethoxyphenyl)propyl) phosphate], which inhibition at 50 µM [1] is on record?
Answer: < 20%

Question: And the inhibition at 50 µM [2]?
Answer: < 20%

Question: What about the inhibition at 100 µM [3] of the same compound?
Answer: < 20%

Question: Which IC50 [1] does the source give for `c1ccc2c(c1)[I+]c1ccccc1-2` [DPI, diphenyleneiodonium chloride, reference compound] here?
Answer: 60 ± 4 nM

Question: And the IC50 [2]?
Answer: 30 ± 3 nM

Question: And the IC50 [3]?
Answer: 80 ± 10 nM

Question: Which IC50 [1] does the source give for `O=c1c(O)c(-c2ccc(O)c(O)c2)oc2cc(O)cc(O)c12` [Quercetin, quercetin, reference compound] here?
Answer: 4100 ± 300 nM

Question: What about the IC50 [2] of the same compound?
Answer: 2400 ± 200 nM

Question: And the IC50 [3]?
Answer: 1200 ± 200 nM

Question: With `COc1ccc2c(c1)c(CC(=O)O)c(C)n2C(=O)c1ccc(Cl)cc1` [indomethacin] as the compound, how does the IC50 [4] read?
Answer: 10100 nM
